For data set [1], the system named is HMVEC cells stimulated with VEGF 165. Briefly: VEGF driven HMVEC proliferation screen. It counts as cell-based. The method, then: (§1) HMVEC cells were plated on collagen-coated plates at 2500 cells/well for 24 hours. Various concentrations of test compounds were then added to duplicate plates. […] Anti-FGF antibody (final concentration of 5 μg/mL) was added to four control wells as a standard inhibitor. At the same time the compounds were added, a T-zero plate was generated (Alamar blue was added to a plate and read after three hours). The plates with the compounds were incubated for one hour at 37° C., 5% carbon dioxide. At this point, b-FGF was added (final concentration of 2.5 ng/mL). Tween-20 (10 μL) was added to four additional control wells to represent total death and the plates were returned to the carbon dioxide incubator for 6 days.
The assay was run identically using VEGF in place of b-FGF. The final concentration of VEGF 165, in this mode, was 10 ng/mL. The control inhibitor was anti-VEGF antibody (final concentration of […]). All other conditions were the same.

Data set [2] deals with HMVEC cells stimulated with b-FGF. Kind of data set: b-FGF driven HMVEC proliferation screen. The data set is classed as cell-based. On the procedure: as §1
The test system of data set [3] is Primary Human Dermal Fibroblasts. Briefly: in vitro. Particulars: read-out: D. Fibroblast LC50; 6 days, Alamar blue. The method, then:
In parallel with the VEGF and FGF screens, a normal cell toxicity assay was run. Primary Human Dermal Fibroblasts (Clonetics) were plated at 5000 cells/well. After 24 hours various concentrations of test compounds, were added in duplicate plates and 10% Tween-20 was added to four control wells to represent total death. At the same time a T-zero plate was generated. The plates were returned to the carbon dioxide incubator and on day 6 Alamar blue was added and the plates read after 3 hours.
Using a T-zero plate allows the observation of compounds that cause the cells to become static as well as inhibit growth.

[4] abbreviates: VEGF 165 10 ng/mL, 6 days, Alamar blue, read-out: VEGF LC50.
Setting [5] is: b-FGF 2.5 ng/mL, 6 days, Alamar blue, read-out: b-FGF LC50.
[6] abbreviates: Homo sapiens, HMVEC, 144 h, VEGF 165 10 ng/mL, 6 days, Alamar blue, read-out: VEGF LC50.
[7] abbreviates: Homo sapiens, HMVEC, 144 h, b-FGF 2.5 ng/mL, 6 days, Alamar blue, read-out: b-FGF LC50.

Like-named read-outs stand apart in the source and are kept apart here. Where only a bound is given, the exact number is not on record here.

As for `O=C(Nc1cc(Cl)c(Cl)c2cccnc12)c1ccccn1` [Compound 15], the values for the CC50 in data set [1], in data set [2] and in data set [3] were 210 nM, 220 nM and over 10 µM, respectively.

`COc1cc(NC(=O)c2ccccn2)c2ncccc2c1` [Compound 2]: the CC50 in data set [1] came out at 38 nM; in data set [2], 31 nM; in data set [3] it was 3.4 µM.

Regarding `CCN(C)c1ccccc1NC(=O)c1ccccn1` [Compound 81], the CC50 is 620 nM in data set [1], 500 nM in data set [2] and over 10 µM in data set [3].

On to `Cc1cc(NC(=O)c2ccccn2)c2ncccc2c1` [Compound 11], for which the CC50 is 73 nM in data set [1], 68 nM in data set [2] and over 10 µM in data set [3].

Take `O=C(Nc1cccc2cccnc12)c1ncccc1O` [Compound 46]: the CC50 was 51 nM in data set [1], 66 nM in data set [2] and over 10 µM in data set [3].

`O=C(Nc1cccc2cccnc12)c1cc(NCCN2CCOCC2)ccn1` [Compound 35]: the CC50 was 120 nM in data set [1], 160 nM in data set [2] and over 10 µM in data set [3].

As to `CN(C)c1ccccc1NC(=O)c1ccccn1` [Compound 80], the CC50 in data set [1] was 770 nM; in data set [2], 830 nM; in data set [3] it was over 10 µM.

Turning to `CN1CCN(c2ccnc(C(=O)Nc3cccc4cccnc34)c2)CC1` [Compound 34, 4-(4-methylpiperazin-1-yl)pyridine-2-carboxylic acid quinolin-8-ylamide], the CC50 is 13 nM in data set [1] (setting [4]), 18 nM in data set [2] (setting [5]) and over 10 µM in data set [3].

On to `Cc1cc(NC(=O)c2ccccn2)c2ncccc2c1C` [Compound 17], for which the CC50 in data set [1] was 160 nM; in data set [2] it was 130 nM; in data set [3], over 10 µM.

As to `O=C(Nc1cc(C(F)(F)F)cc2cccnc12)c1ccccn1` [Compound 5], the CC50 in data set [1] was 160 nM; in data set [2] it was 120 nM; in data set [3] it was over 10 µM.

With `COc1cc(NC(=O)c2cc(N3CCN(C)CC3)ccn2)c2ncccc2c1` [Compound 54], the CC50 is 15 nM in data set [1] (setting [4]), 20 nM in data set [2] (setting [5]) and over 10 µM in data set [3].

Regarding `O=C(Nc1cccc2cccnc12)c1cc(SCc2ccccc2)ccn1` [Compound 45], the CC50 was 61 nM in data set [1] (setting [4]), 190 nM in data set [2] (setting [5]) and over 10 µM in data set [3].

Turning to `O=C(Nc1cc(Cl)cc2cccnc12)c1ccccn1` [Compound 4], the results for the CC50 in data set [1], in data set [2] and in data set [3] were 120 nM, 110 nM and over 10 µM, respectively.

`O=C(Nc1cccc2cccnc12)c1cccc(Br)n1` [Compound 26]: the CC50 in data set [1] is 86 nM; in data set [2] it was 120 nM; in data set [3], over 10 µM.

As to `CC(C)N(C)c1ccccc1NC(=O)c1ccccn1` [Compound 83], the CC50 in data set [1] was 9600 nM; in data set [2], 6500 nM; in data set [3] it was over 10 µM.

On to `CCCN(C)c1ccccc1NC(=O)c1ccccn1` [Compound 82], for which the values for the CC50 in data set [1], in data set [2] and in data set [3] were 2000 nM, 1300 nM and over 10 µM, respectively.

In the case of `CCN(CC)c1ccccc1NC(=O)c1ccccn1` [Compound 84], the CC50 is 1600 nM in data set [1], 1500 nM in data set [2] and over 10 µM in data set [3].

In the case of `COc1ccc(NC(=O)c2ccccn2)c2ncccc12` [Compound 3], the CC50 in data set [1] (setting [4]) is 120 nM; in data set [2] (setting [5]), 110 nM; in data set [3], over 10 µM.

Consider `CCN1CCN(c2ccnc(C(=O)Nc3cccc4cccnc34)c2)CC1` [Compound 41], for which the CC50 in data set [1] turned out to be 17 nM; in data set [2] it was 18 nM; in data set [3], 4.2 µM.

For the compound `O=C(Nc1cccc2cc(Cl)cnc12)c1ccccn1` [Compound 7], the CC50 in data set [1] was 310 nM; in data set [2] it was 320 nM; in data set [3], over 10 µM.

As to `CCN(C)c1c(NC(=O)c2ccccn2)ccc(Cl)c1Cl` [Compound 92], the CC50 in data set [1] is 8200 nM; in data set [2], 7900 nM; in data set [3], over 10 µM.

Turning to `CN(C)c1c(NC(=O)c2ccccn2)ccc(Cl)c1Cl` [Compound 91], the CC50 in data set [1] was 3500 nM; in data set [2], 2400 nM; in data set [3], over 10 µM.

For `COc1cc(NS(=O)(=O)c2ccccn2)c2ncccc2c1` [Compound 72], the values for the CC50 in data set [1], in data set [2] and in data set [3] were 170 nM, 240 nM and over 10 µM, respectively.

Turning to `CCN(CCN(C)C)c1ccnc(C(=O)Nc2cccc3cccnc23)c1` [Compound 40], the CC50 in data set [1] worked out at 16 nM; in data set [2] it was 21 nM; in data set [3] it was 7.6 µM.

On to `CN1CCCN(c2ccnc(C(=O)Nc3cccc4cccnc34)c2)CC1` [Compound 38], for which the CC50 is 26 nM in data set [1], 25 nM in data set [2] and over 10 µM in data set [3].

With `O=C(Nc1cccc2cccnc12)c1cc(N2CCCCC2)ccn1` [Compound 43], the CC50 in data set [1] (setting [4]) is 400 nM; in data set [2] (setting [5]), 220 nM; in data set [3], over 10 µM.

On to `CN1CCN(c2ccnc(C(=O)Nc3cccc4cccnc34)c2)CC1` [Compound 101], for which the CC50 in data set [1] (setting [4]) is 15 nM; in data set [2] (setting [5]) it was 14 nM; in data set [3] it was over 10 µM.

Turning to `CCOc1cc(NC(=O)c2ccccn2)c2ncccc2c1` [Compound 8], the CC50 in data set [1] is 96 nM; in data set [2], 81 nM; in data set [3], over 10 µM.

As for `O=C(Nc1cccc2cccnc12)c1cc(-c2ccccc2)ccn1` [Compound 27], the values for the CC50 in data set [1] (setting [4]), in data set [2] (setting [5]) and in data set [3] were 640 nM, 950 nM and over 10 µM, respectively.

`O=C(Nc1cccc2cccnc12)c1cc(N2CCC(N3CCCC3)CC2)ccn1` [Compound 42]: the CC50 was determined as 42 nM in data set [1] (setting [4]), 33 nM in data set [2] (setting [5]) and 3.6 µM in data set [3].

For the compound `O=C(Nc1ccccc1N1CCCC1)c1ccccn1` [Compound 79], the figures for the CC50 in data set [1], in data set [2] and in data set [3] were 8000 nM, 6500 nM and over 10 µM, respectively.

`O=C(Nc1cccc2nccnc12)c1ccccn1` [Compound 77]: the CC50 in data set [1] (setting [4]) was 170 nM; in data set [2] (setting [5]), 180 nM; in data set [3], over 10 µM.

Turning to `O=C(Nc1cc(OCCN2CCOCC2)cc2cccnc12)c1ccccn1` [Compound 20], the CC50 in data set [1] is 30 nM; in data set [2], 31 nM.

For the compound `Cc1cccnc1C(=O)Nc1cccc2cccnc12` [Compound 24], the CC50 in data set [1] was 140 nM; in data set [2], 150 nM; in data set [3], over 10 µM.

As for `CN(C)CCCOc1cccnc1C(=O)Nc1cccc2cccnc12` [Compound 49], the CC50 in data set [1] (setting [4]) is 1700 nM; in data set [2] (setting [5]), 2500 nM; in data set [3], over 10 µM.

For `Cc1ccc(NS(=O)(=O)c2ccccn2)c2ncccc12` [Compound 74], the CC50 in data set [1] was 120 nM; in data set [2], 110 nM; in data set [3] it was over 10 µM.

On to `CN(C)CCN(C)c1ccc(NC(=O)c2ccccn2)c2ncccc12` [Compound 21], for which the results for the CC50 in data set [1] (setting [4]), in data set [2] (setting [5]) and in data set [3] were 3700 nM, 2400 nM and over 10 µM, respectively.

Consider `O=C(Nc1cc(OCCN2CCOCC2)cc2cccnc12)c1ccccn1` [Compound 99], for which the CC50 in data set [1] (setting [6]) was 28 nM; in data set [2] (setting [7]) it was 31 nM.

With `Cc1ccc2cccc(NC(=O)c3ccccn3)c2n1` [Compound 6], the values for the CC50 in data set [1], in data set [2] and in data set [3] were 3900 nM, 3200 nM and over 10 µM, respectively.

For `O=C(Nc1cccc2cccnc12)c1cc(N2CCN(Cc3ccccc3)CC2)ccn1` [Compound 36], the CC50 in data set [1] (setting [4]) was 840 nM; in data set [2] (setting [5]) it was 900 nM; in data set [3], over 10 µM.

Regarding `O=C(Nc1ccc(Cl)c2cccnc12)c1ccccn1` [Compound 18], the CC50 in data set [1] was 170 nM; in data set [2] it was 200 nM; in data set [3], over 10 µM.

Consider `CN1CCC[C@H]1C(=O)Nc1cccc2cccnc12` [Compound 58, (S)-1-methyl-pyrrolidine-2-carboxylic acid quinolin-8-ylamide], for which the CC50 in data set [1] (setting [4]) is 190 nM; in data set [2] (setting [5]) it was 170 nM; in data set [3] it was over 10 µM.

Consider `CN1CCN(c2ccc(NC(=O)c3ccccn3)c3ncccc23)CC1` [Compound 19], for which the CC50 in data set [1] (setting [4]) was 28 nM; in data set [2] (setting [5]), 28 nM; in data set [3] it was over 10 µM.

As for `O=C(Nc1cccc2cccnc12)c1ncccc1OCCN1CCOCC1` [Compound 48], the values for the CC50 in data set [1] and in data set [2] were 950 nM and 1600 nM, respectively.

Turning to `O=C(Nc1cccc2cccnc12)c1ccccn1` [Compound 1], the CC50 in data set [1] was 65 nM; in data set [2], 61 nM.

As to `O=C(Nc1cccc2cccnc12)c1ncccc1OCCN1CCOCC1` [Compound 104], the CC50 in data set [1] (setting [6]) amounted to 810 nM; in data set [2] (setting [7]), 1400 nM.

The values are drawn from patent US20070254894A1, “Novel small molecules with selective cytotoxicity against human microvascular endothelial cell proliferation” (priority 2006, published 2007).
